The target of experiment [1] is T1, HIV reverse transcriptase (Human immunodeficiency virus type 1 group M subtype B, UniProt P04585).
T1 construct: 0.05 units of HIV reverse transcriptase (Amersham T3610Y); purchased Amersham T3610Y
The experiment is described as follows: Reverse transcriptase inhibition assay with streptavidin-coated polystyrene europium beads and CCD imaging. The class given is biochemical. The method, then:
The reverse transcriptase enzyme SPA assay (Amersham NK8972) is a homogeneous assay system which uses a biotinylated DNA/RNA oligonucleotide enzyme substrate which is captured on streptavidin PVT SPA beads for quantification. In this assay, streptavidin-coated organic chelate beads prepared from polystyrene (PST) containing europium were used and the inhibition of reverse transcriptase by aurintricarboxylic acid determined.
Biotinylated, ready annealed primer/template was added to the wells of a white microplate. This was followed by [^3H]TTP (Amersham TRK576) in 127 nM mixture of dATP, dCTP, dGTP, and TTP buffered in tris/HCl pH 8.0, 80 mM KCl, 10 mM MgCl2, 10 mM DTT and 0.05% w/v Nonidet P40. Aurintricarboxylic acid at concentrations between 0.05 and 1 μM was added and the reactions were initiated by the addition of 0.05 units of HIV reverse transcriptase (Amersham T3610Y). Plates were incubated at 37° C. for 20 minutes and were terminated with the addition of stop reagent. 0.1 mg of streptavidin coated PST beads was added and the plates were incubated overnight at room temperature. The signal generated was detected using the CCD imaging system.

The target in experiment [2] is T1, HIV reverse transcriptase. The experiment is described as follows: Reverse transcriptase enzyme SPA assay (conventional SPA, streptavidin PVT SPA beads). Format: biochemical. From the text:
The reverse transcriptase enzyme SPA assay (Amersham NK8972) is a homogeneous assay system which uses a biotinylated DNA/RNA oligonucleotide enzyme substrate which is captured on streptavidin PVT SPA beads for quantification. […]

The IC50 is the concentration that inhibits the measured activity by half. A low value points to inhibition by little substance. For `O=C(O)C1=CC(=C(c2ccc(O)c(C(=O)O)c2)c2ccc(O)c(C(=O)O)c2)C=CC1=O` [aurintricarboxylic acid], the IC50 in experiment [1] worked out at 0.23 µM; in experiment [2] it was 0.18 µM. In experiment [1] (1 μM of inhibitor, PST beads, CCD imaging), the “inhibition of reverse transcriptase activity” value came to 85%.
